Test results published in PubChem BioAssay AID2060483 (Molecular Pharmacology Branch, DTP, NCI, 2025).

Test system: K24384-001-R-PDC complex spheroids, viability
Assay: Anticancer human tumor K24384-001-R-PDC patient-derived pancreatic adenocarcinoma cell line growth inhibition [GQUAD]
Conditions: for IC50: curve of first compound; for viability, T/C: stronger effect = lower value
Summary of the method: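 Viability of tumor cells grown as complex spheroids with endothelial and stromal cells, exposed to drug combinations. Top concentration at or near clinical Cmax (else 10 microM), diluted in half-log increments.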

[1] = second compound 0.0316 µM, first compound 0.0316 µM
[2] = second compound 0.0316 µM, first compound 0.1 µM
[3] = second compound 0.0316 µM, first compound 0.316 µM
[4] = second compound 0.0316 µM, first compound 1 µM
[5] = second compound 0.0316 µM, first compound 3.16 µM
[6] = second compound 0.0316 µM, first compound 10 µM
[7] = second compound 0.1 µM, first compound 0.0316 µM
[8] = second compound 0.1 µM, first compound 0.1 µM
[9] = second compound 0.1 µM, first compound 0.316 µM
[10] = second compound 0.1 µM, first compound 1 µM
[11] = second compound 0.1 µM, first compound 3.16 µM
[12] = second compound 0.1 µM, first compound 10 µM
[13] = second compound 0.316 µM, first compound 0.0316 µM
[14] = second compound 0.316 µM, first compound 0.1 µM
[15] = second compound 0.316 µM, first compound 0.316 µM
[16] = second compound 0.316 µM, first compound 1 µM
[17] = second compound 0.316 µM, first compound 3.16 µM
[18] = second compound 0.316 µM, first compound 10 µM
[19] = second compound 1 µM, first compound 0.0316 µM
[20] = second compound 1 µM, first compound 0.1 µM
[21] = second compound 1 µM, first compound 0.316 µM
[22] = second compound 1 µM, first compound 1 µM
[23] = second compound 1 µM, first compound 3.16 µM
[24] = second compound 1 µM, first compound 10 µM
[25] = second compound 3.16 µM, first compound 0.0316 µM
[26] = second compound 3.16 µM, first compound 0.1 µM
[27] = second compound 3.16 µM, first compound 0.316 µM
[28] = second compound 3.16 µM, first compound 1 µM
[29] = second compound 3.16 µM, first compound 3.16 µM
[30] = second compound 3.16 µM, first compound 10 µM
[31] = second compound 10 µM, first compound 0.0316 µM
[32] = second compound 10 µM, first compound 0.1 µM
[33] = second compound 10 µM, first compound 0.316 µM
[34] = second compound 10 µM, first compound 1 µM
[35] = second compound 10 µM, first compound 3.16 µM
[36] = second compound 10 µM, first compound 10 µM
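Further: spheroids exposed to compounds for seven days.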

C#Cc1c(F)ccc2cc(O)cc(-c3ncc4c(N5CC6CCC(C5)N6)nc(OCC56CCCN5CC(F)C6)nc4c3F)c12 (stereo unspecified) + CN(C)c1ccc(Nc2c3ccc(NC(=O)CCN4CCCC4)cc3nc3cc(NC(=O)CCN4CCCC4)ccc23)cc1
IC50 (second compound 0.0316 µM): 1.05 µM | IC50 (second compound 0.1 µM): 1.69 µM | IC50 (second compound 0.316 µM): 1.52 µM | IC50 (second compound 1 µM): 1.78 µM | IC50 (second compound 3.16 µM): 1.75 µM | IC50 (second compound 10 µM): 1.12 µM | viability, T/C [1]: 101% | viability, T/C [2]: 84.6% | viability, T/C [3]: 68.1% | viability, T/C [4]: 51.5% | viability, T/C [5]: 32.5% | viability, T/C [6]: 14.4% | viability, T/C [7]: 109% | viability, T/C [8]: 105% | viability, T/C [9]: 78.2% | viability, T/C [10]: 63.9% | viability, T/C [11]: 36.1% | viability, T/C [12]: 16% | viability, T/C [13]: 87.7% | viability, T/C [14]: 108% | viability, T/C [15]: 85% | viability, T/C [16]: 61.5% | viability, T/C [17]: 31.1% | viability, T/C [18]: 20.1% | viability, T/C [19]: 104% | viability, T/C [20]: 82.1% | viability, T/C [21]: 90.4% | viability, T/C [22]: 58.1% | viability, T/C [23]: 38.7% | viability, T/C [24]: 17.6% | viability, T/C [25]: 89.3% | viability, T/C [26]: 85.8% | viability, T/C [27]: 92.3% | viability, T/C [28]: 61.9% | viability, T/C [29]: 35.5% | viability, T/C [30]: 14.4% | viability, T/C [31]: 92.5% | viability, T/C [32]: 77% | viability, T/C [33]: 68.5% | viability, T/C [34]: 55.1% | viability, T/C [35]: 30.1% | viability, T/C [36]: 7.21%

CC(=O)O[C@H]1C(=O)[C@@]2(C)[C@H]([C@H](OC(=O)c3ccccc3)[C@]3(O)C[C@H](OC(=O)[C@H](O)[C@@H](NC(=O)c4ccccc4)c4ccccc4)C(C)=C1C3(C)C)[C@]1(OC(C)=O)CO[C@@H]1C[C@@H]2O + CN(C)c1ccc(Nc2c3ccc(NC(=O)CCN4CCCC4)cc3nc3cc(NC(=O)CCN4CCCC4)ccc23)cc1
IC50 (second compound 0.0316 µM): < 0.0316 µM | IC50 (second compound 0.1 µM): < 0.0316 µM | IC50 (second compound 0.316 µM): < 0.0316 µM | IC50 (second compound 1 µM): < 0.0316 µM | IC50 (second compound 3.16 µM): < 0.0316 µM | IC50 (second compound 10 µM): < 0.0316 µM | viability, T/C [1]: 32.2% | viability, T/C [2]: 22.9% | viability, T/C [3]: 20.5% | viability, T/C [4]: 20.1% | viability, T/C [5]: 22.4% | viability, T/C [6]: 25.3% | viability, T/C [7]: 34.5% | viability, T/C [8]: 22.1% | viability, T/C [9]: 18.5% | viability, T/C [10]: 21.3% | viability, T/C [11]: 20.7% | viability, T/C [12]: 25.7% | viability, T/C [13]: 37.3% | viability, T/C [14]: 22.4% | viability, T/C [15]: 17.6% | viability, T/C [16]: 19.8% | viability, T/C [17]: 19.5% | viability, T/C [18]: 25.7% | viability, T/C [19]: 33.4% | viability, T/C [20]: 23.7% | viability, T/C [21]: 19.3% | viability, T/C [22]: 19.9% | viability, T/C [23]: 26.1% | viability, T/C [24]: 27.5% | viability, T/C [25]: 29.4% | viability, T/C [26]: 20.7% | viability, T/C [27]: 24.4% | viability, T/C [28]: 17.4% | viability, T/C [29]: 23.2% | viability, T/C [30]: 30.1% | viability, T/C [31]: 38.2% | viability, T/C [32]: 26.4% | viability, T/C [33]: 24.9% | viability, T/C [34]: 24.5% | viability, T/C [35]: 33.9% | viability, T/C [36]: 40.9%

CC(C)(O)C1CCC(Nc2ccc3ncc(-c4cccc(C(F)(F)F)c4)n3n2)CC1 (stereo unspecified) + CN(C)c1ccc(Nc2c3ccc(NC(=O)CCN4CCCC4)cc3nc3cc(NC(=O)CCN4CCCC4)ccc23)cc1
IC50 (second compound 0.0316 µM): 2.35 µM | IC50 (second compound 0.1 µM): 2.03 µM | IC50 (second compound 0.316 µM): 2.38 µM | IC50 (second compound 1 µM): 2.16 µM | IC50 (second compound 3.16 µM): 1.89 µM | IC50 (second compound 10 µM): 1.24 µM | viability, T/C [1]: 106% | viability, T/C [2]: 106% | viability, T/C [3]: 102% | viability, T/C [4]: 84.6% | viability, T/C [5]: 37.5% | viability, T/C [6]: 37.2% | viability, T/C [7]: 105% | viability, T/C [8]: 104% | viability, T/C [9]: 96.4% | viability, T/C [10]: 79% | viability, T/C [11]: 30.5% | viability, T/C [12]: 33.4% | viability, T/C [13]: 104% | viability, T/C [14]: 98.1% | viability, T/C [15]: 98% | viability, T/C [16]: 94.6% | viability, T/C [17]: 35.4% | viability, T/C [18]: 34.3% | viability, T/C [19]: 106% | viability, T/C [20]: 109% | viability, T/C [21]: 109% | viability, T/C [22]: 82% | viability, T/C [23]: 28.6% | viability, T/C [24]: 39.6% | viability, T/C [25]: 100% | viability, T/C [26]: 101% | viability, T/C [27]: 107% | viability, T/C [28]: 77.4% | viability, T/C [29]: 26.2% | viability, T/C [30]: 29.8% | viability, T/C [31]: 94.4% | viability, T/C [32]: 98% | viability, T/C [33]: 77.9% | viability, T/C [34]: 61.5% | viability, T/C [35]: 16.9% | viability, T/C [36]: 16.9%
